Measurements reported in patent publication US20200131669A1, “CYCLIC PEPTIDE COMPOUND HAVING HIGH MEMBRANE PERMEABILITY, AND LIBRARY CONTAINING SAME” (Chugai Seiyaku Kabushiki Kaisha, priority 2017, published 2020).
Read-outs that look alike come from different tables or passages of the source. Starred links: 1 amine or outer side, 2 acyl side, 3 side chain; linkers in the order of their positions; H or OH if unused. Positions of bridges follow the written chain, without caps; N, C: chain ends. Non-standard residues stand in square brackets, D forms with d. Residues, ends and D or L forms follow the SMILES beside them. ξ: configuration not given here. *: point of attachment. Phe(4-CF3) = N[C@@H](Cc1ccc(C(F)(F)F)cc1)C(=O)O; NMePhe(3-Cl) = CN[C@@H](Cc1cccc(Cl)c1)C(=O)O; NMePhe(4-Cl) = CN[C@@H](Cc1ccc(Cl)cc1)C(=O)O; X12 = CCCC[C@@H](O)[C@H](N[*:1])C(=O)[*:2]; NMeW = CN[C@@H](Cc1c[nH]c2ccccc12)C(=O)O; X5 = O=C(C(CCc1noc(=O)[nH]1)N[*:1])[*:2]; Gly(NCH2CH2Ph) = O=C(O)CNCCc1ccccc1; NMeF = CN[C@@H](Cc1ccccc1)C(=O)O; NMeGABA = CN(CCCC(=O)[*:2])[*:1]; NMeI = CC[C@H](C)[C@H](NC)C(=O)O; NMeβAla = CN(CCC(=O)[*:2])[*:1]; ξThr(3R) = C[C@@H](O)C(N)C(=O)O; NMeL = CN[C@@H](CC(C)C)C(=O)O; NMeV = CN[C@H](C(=O)O)C(C)C; NMeAbu = CC[C@H](NC)C(=O)O; NMeA = CN[C@@H](C)C(=O)O; Piperidide = C1CCN(*)CC1; CH2CMe2OH = CC(C)(O)C*; NBuGly = CCCCNCC(=O)O; Isopentyl = CC(C)CC*; ξS = NC(CO)C(=O)O; Sar = CNCC(=O)O; tBu = CC(C)(C)*

Assay: Caco-2 membrane permeability, improved method as used in the following Examples (96-well, 20 to 24 h preincubation)
Type: in vitro ADME
Conditions: for Papp A→B at 180 min: human
Protocol: In the following Examples, membrane permeability was measured in accordance with the improved method established as described above. Specifically, Caco-2 cells were cultured on a 96-well Transwell for three weeks, after which DMEM+FaSSIF (1% DMSO)+compound were added to the apical side and DMEM was added to the basal side, and the cells were preincubated at 5% CO2, 37° C., and 80 rpm for 20 to 24 hours. Following the preincubation, measurement of membrane permeability was initiated by removing the preincubation solution on the apical and basal sides by suction, washing the membrane, and adding FaSSIF/HBSS buffer (1% DMSO) (pH 6.0) containing the compound to the apical side and HBSS buffer (4% BSA) (pH 7.4) to the basal side. Each well was shaken at 5% CO2, 37° C., and 80 rpm, and 180 minutes after the initiation, the sample on the basal side was collected and the permeation amount was measured by LC/MS. The membrane permeability coefficient (Papp) was calculated from the permeation amount. Herein, the terms “Caco-2 (cm/sec)” in the columns in the tables and “Papp (cm/sec)” are used in the same meaning.

CC(C)C[C@@H]1NC(=O)[C@H](Cc2ccccc2)N(C)C(=O)[C@@H](CC(C)C)NC(=O)C[C@@H](C(=O)N2CCCCC2)NC(=O)[C@H](CC(C)C)N(C)C(=O)[C@H](Cc2ccccc2)N(C)C(=O)[C@H](COC(C)(C)C)NC(=O)[C@H](CC(C)C)N(C)C(=O)CN(C)C(=O)[C@H](CCC(=O)N(C)C)NC(=O)[C@H](CC(C)C)N(C)C1=O [pd441] ([dL][NMeF]L[NMeL]E(NMe2)[Sar][NMeL]S(tBu)[NMeF][NMeL]D-Piperidide; lactam N-11)
Papp A→B at 180 min (Caco-2, Caco-2): 1.7 ×10⁻⁶ cm/s

CC(C)C[C@@H]1NC(=O)[C@H](Cc2ccccc2)N(C)C(=O)[C@@H](C(C)C)NC(=O)C[C@@H](C(=O)N2CCCCC2)NC(=O)[C@H](CC(C)C)N(C)C(=O)[C@H](Cc2cccc(Cl)c2)N(C)C(=O)[C@H](COCC(C)(C)O)NC(=O)[C@H](CC(C)C)N(C)C(=O)CN(C)C(=O)[C@H]([C@@H](C)O)NC(=O)[C@H](CC(C)C)N(C)C1=O [pd427] ([dV][NMeF]L[NMeL]T[Sar][NMeL]S(CH2CMe2OH)[NMePhe(3-Cl)][NMeL]D-Piperidide; lactam N-11)
Papp A→B at 180 min (Caco-2, Caco-2): 1.3 ×10⁻⁶ cm/s

CCCCN1CC(=O)N(C)[C@@H](CC(C)C)C(=O)N[C@H](C(=O)N2CCCCC2)CC(=O)N(C)[C@@H](CC)C(=O)N[C@@H](CC(C)C)C(=O)N(C)[C@@H](CC(C)C)C(=O)N(C)[C@@H](Cc2ccccc2)C(=O)NC(CCc2noc(=O)[nH]2)C(=O)N(C)[C@@H](CC(C)C)C(=O)N(C)[C@@H](CC(C)C)C(=O)NC([C@@H](C)O)C1=O (stereo partly drawn) [pd487] ([NMeAbu]L[NMeL][NMeF][X5][NMeL][NMeL][ξThr(3R)][NBuGly][NMeL]D-Piperidide; lactam N-11)
Papp A→B at 180 min (Papp, Caco-2 membrane permeability, improved method, read-out: Caco-2): 2.2 ×10⁻⁶ cm/s

CC[C@H](C)[C@H]1C(=O)N[C@@H]([C@@H](C)O)C(=O)N(C)CC(=O)N(C)[C@@H](CC(C)C)C(=O)N[C@H](C(=O)N2CCCCC2)CC(=O)N(C)[C@@H](C)C(=O)N[C@@H](CC(C)C)C(=O)N(C)[C@@H](CC(C)C)C(=O)N(C)[C@@H](Cc2c[nH]c3ccccc23)C(=O)N[C@@H](C(C)C)C(=O)N(C)[C@@H](CC(C)C)C(=O)N1C [pd102] ([NMeA]L[NMeL][NMeW]V[NMeL][NMeI]T[Sar][NMeL]D-Piperidide; lactam N-11)
Papp A→B at 180 min (Caco-2, Caco-2 (cm/sec)): 1.1 ×10⁻⁶ cm/s

CC[C@H](C)[C@H]1C(=O)N[C@@H]([C@@H](C)O)C(=O)N(C)CC(=O)N(C)[C@@H](C)C(=O)N[C@H](C(=O)N2CCCCC2)CC(=O)N(C)[C@@H](C)C(=O)N[C@@H](Cc2ccc(C(F)(F)F)cc2)C(=O)N(C)[C@@H](CC(C)C)C(=O)N(C)[C@@H](Cc2ccccc2)C(=O)N[C@@H](C)C(=O)N(C)[C@@H](CC(C)C)C(=O)N1C [pd131] ([NMeA][Phe(4-CF3)][NMeL][NMeF]A[NMeL][NMeI]T[Sar][NMeA]D-Piperidide; lactam N-11)
Papp A→B (Caco-2, Caco-2 (cm/sec)): 1.1 ×10⁻⁶ cm/s

CCCC[C@@H](O)[C@@H]1NC(=O)[C@H](Cc2ccccc2)N(C)C(=O)[C@H](Cc2ccccc2)N(C)C(=O)[C@H]([C@@H](C)CC)NC(=O)[C@H](CC(C)C)N(C)C(=O)CCCN(C)C(=O)C[C@@H](C(=O)N2CCCCC2)NC(=O)[C@H](CC(C)C)N(C)C(=O)[C@H](C)N(C)C(=O)[C@H]([C@@H](C)O)NC(=O)[C@H](CC(C)C)N(C)C1=O [pd468] ([NMeGABA][NMeL]I[NMeF][NMeF][X12][NMeL]T[NMeA][NMeL]D-Piperidide; lactam N-11)
Papp A→B at 180 min (Caco-2, Caco-2): 1 ×10⁻⁶ cm/s

CC[C@H](C)[C@@H]1NC(=O)[C@H](Cc2ccccc2)N(C)C(=O)[C@H](C)N(C)C(=O)[C@H](CC(C)C)N(C)C(=O)[C@H](Cc2ccccc2)N(C)C(=O)CCN(C)C(=O)C[C@@H](C(=O)N(C)[C@@H](Cc2ccccc2)C(=O)N(C)[C@@H](Cc2ccccc2)C(=O)N[C@@H](C)C(=O)N2CCCCC2)NC(=O)[C@H]([C@@H](C)O)NC(=O)[C@H](CC(C)C)N(C)C(=O)[C@H](CC(C)C)N(C)C1=O [pd239] ([NMeβAla][NMeF][NMeL][NMeA][NMeF]I[NMeL][NMeL]TD[NMeF][NMeF]A-Piperidide; lactam N-10)
Papp A→B at 180 min (Caco-2, Caco-2 (cm/sec)): 0.065 ×10⁻⁶ cm/s

CC(C)C[C@@H]1NC(=O)[C@H](CC(C)C)N(C)C(=O)[C@H](C)N(C)C(=O)C[C@@H](C(=O)N(C)[C@@H](Cc2ccccc2)C(=O)N[C@@H](C)C(=O)N2CCCCC2)NC(=O)[C@H]([C@@H](C)O)NC(=O)[C@H](CC(C)C)N(C)C(=O)[C@H](Cc2ccccc2)NC(=O)[C@H](Cc2ccccc2)N(C)C(=O)[C@H](CC(C)C)N(C)C1=O [pd218] ([NMeA][NMeL]L[NMeL][NMeF]F[NMeL]TD[NMeF]A-Piperidide; lactam N-9)
Papp A→B at 180 min (Caco-2, Caco-2 (cm/sec)): 1.1 ×10⁻⁶ cm/s

CC(C)C[C@@H]1NC(=O)[C@H](CC(C)C)N(C)C(=O)[C@H](C(C)C)NC(=O)C[C@@H](C(=O)N2CCCCC2)NC(=O)[C@H](CC(C)C)N(C)C(=O)[C@H]([C@@H](C)O)NC(=O)[C@H](Cc2ccc(C(F)(F)F)cc2)NC(=O)[C@H](CC(C)C)N(C)C(=O)[C@H](C)N(C)C1=O [pd146] (V[NMeL]L[NMeA][NMeL][Phe(4-CF3)]T[NMeL]D-Piperidide; lactam N-9)
Papp A→B at 180 min (Caco-2, read-out: Caco-2): 1.7 ×10⁻⁶ cm/s

CC[C@H](C)[C@@H]1NC(=O)[C@H](Cc2ccccc2)N(C)C(=O)CN(C)C(=O)C[C@@H](C(=O)N2CCCCC2)NC(=O)[C@H](C(C)C)N(C)C(=O)[C@H](COC(C)(C)C)NC(=O)[C@H](CC(C)C)N(C)C(=O)[C@H](Cc2ccc(Cl)cc2)N(C)C(=O)CN(C)C(=O)[C@H]([C@@H](C)O)NC(=O)[C@H](CC(C)C)N(C)C1=O [pd175] ([Sar][NMeF]I[NMeL]T[Sar][NMePhe(4-Cl)][NMeL]S(tBu)[NMeV]D-Piperidide; lactam N-11)
Papp A→B at 180 min (Caco-2, Caco-2 (cm/sec)): 1.1 ×10⁻⁶ cm/s

CC[C@H]1C(=O)N[C@@H]([C@@H](C)O)C(=O)N(CCc2ccccc2)CC(=O)N(C)[C@@H](CC(C)C)C(=O)N[C@H](COC(C)(C)C)C(=O)N(C)[C@@H](CC(C)C)C(=O)N(C)[C@@H](CC)C(=O)N[C@H](C(=O)N2CCCCC2)CC(=O)N[C@H](C)C(=O)N(C)[C@@H](Cc2ccccc2)C(=O)N[C@@H](CC(C)C)C(=O)N1C [pd409] ([dA][NMeF]L[NMeAbu]T[Gly(NCH2CH2Ph)][NMeL][dS](tBu)[NMeL][NMeAbu]D-Piperidide; lactam N-11)
Papp A→B at 180 min (Caco-2, Caco-2): 1.4 ×10⁻⁶ cm/s

CC(C)C[C@@H]1NC(=O)[C@H](Cc2ccccc2)N(C)C(=O)[C@@H](C(C)C)NC(=O)C[C@@H](C(=O)N2CCCCC2)NC(=O)[C@H](C)N(C)C(=O)[C@H](CC(C)C)N(C)C(=O)[C@H](COC(C)(C)C)NC(=O)[C@H](CC(C)C)N(C)C(=O)CN(C)C(=O)[C@H](Cc2ccc(O)cc2)NC(=O)[C@H](CC(C)C)N(C)C1=O [pd127] ([dV][NMeF]L[NMeL]Y[Sar][NMeL]S(tBu)[NMeL][NMeA]D-Piperidide; lactam N-11)
Papp A→B at 180 min (Caco-2, Caco-2 (cm/sec)): 0.13 ×10⁻⁶ cm/s

CC(C)CCOCC1NC(=O)[C@H](CC(C)C)N(C)C(=O)[C@H](Cc2ccccc2)N(C)C(=O)CN(C)C(=O)[C@H]([C@@H](C)O)NC(=O)[C@H](CC(C)C)N(C)C(=O)[C@H](C(C)C)NC(=O)[C@H](Cc2ccccc2)N(C)C(=O)CN(C)C(=O)C[C@@H](C(=O)N2CCCCC2)NC(=O)[C@H](CC(C)C)N(C)C1=O (stereo partly drawn) [pd305] ([Sar][NMeF]V[NMeL]T[Sar][NMeF][NMeL][ξS](Isopentyl)[NMeL]D-Piperidide; lactam N-11)
Papp A→B at 180 min (Caco-2, Caco-2): 2.3 ×10⁻⁶ cm/s
